Experimental data published in patent publication US11053204B2, “Pyrimidinyloxy benzene derivatives as herbicides” (FMC Corporation, priority 2015, dated 2021).

Assays:
Format in all cases: in vivo
[1] = system: barnyardgrass (Echinochloa crus-galli); assay: Test B flooded paddy test, plant response rating; details: 250 g ai/ha, Flood, scale of 0 to 100 where 0 is no effect and 100 is complete control, 13 to 15 days
Outline: (§1)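 Under a constant 3 cm flood, test compounds went directly into the paddy water. Following 13 to 15 days of greenhouse growth, treated species and controls were compared by eye.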

[2] = system: sedge, umbrella (small-flower umbrella sedge, Cyperus difformis); assay: Test B flooded paddy test, plant response rating; details: 250 g ai/ha, Flood, scale of 0 to 100 where 0 is no effect and 100 is complete control, 13 to 15 days
Outline: as §1

[3] = system: ducksalad (Heteranthera limosa); assay: Test B flooded paddy test, plant response rating; details: 250 g ai/ha, Flood, scale of 0 to 100 where 0 is no effect and 100 is complete control, 13 to 15 days
Outline: as §1

[4] = system: rice (Oryza sativa); assay: Test B flooded paddy test, plant response rating; details: 250 g ai/ha, Flood, scale of 0 to 100 where 0 is no effect and 100 is complete control, 13 to 15 days
Outline: as §1

[5] = system: barnyardgrass (Echinochloa crus-galli); assay: Test A preemergence, visual injury rating
Outline: (§2)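 Injury scores run from 0, no effect, to 100, complete control, judged by eye against untreated plants roughly 10 days after treatment. Chemicals carried a surfactant in a non-phytotoxic solvent and went onto loam–sand soil preemergence or onto one- to two-leaf seedlings postemergence.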

[6] = system: ragweed (common ragweed, Ambrosia elatior); assay: Test A preemergence, visual injury rating
Outline: as §2

[7] = system: kochia (Kochia scoparia); assay: Test A preemergence, visual injury rating
Outline: as §2

[8] = system: pigweed (Amaranthus retroflexus); assay: Test A preemergence, visual injury rating
Outline: as §2

[9] = system: giant foxtail (Setaria faberii); assay: Test A preemergence, visual injury rating
Outline: as §2

[10] = system: Italian ryegrass (Lolium multiflorum); assay: Test A preemergence, visual injury rating
Outline: as §2

[11] = system: ragweed (common ragweed, Ambrosia elatior); assay: Test C preemergence, plant response rating; details: Preemergence
Outline: (§3)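 Both timings shared one formulation, a non-phytotoxic solvent mixture with surfactant, and a greenhouse period of 13 to 15 d. Preemergence used seeded loam/sand or silt loam soil, postemergence used 2 to 18 cm plants; visual ratings ran from 0 (no effect) to 100 (complete control).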

[12] = system: blackgrass (Alopecurus myosuroides); assay: Test C preemergence, plant response rating; details: Preemergence
Outline: as §3

[13] = system: crabgrass, large (large crabgrass, Digitaria sanguinalis); assay: Test C preemergence, plant response rating; details: Preemergence
Outline: as §3

[14] = system: foxtail, giant (giant foxtail, Setaria faberii); assay: Test C preemergence, plant response rating; details: Preemergence
Outline: as §3

[15] = system: ryegrass, Italian (Italian ryegrass, Lolium multiflorum); assay: Test C preemergence, plant response rating; details: Preemergence
Outline: as §3

[16] = system: soybean (Glycine max); assay: Test C preemergence, plant response rating; details: Preemergence
Outline: as §3

[17] = system: corn (Zea mays); assay: Test C preemergence, plant response rating; details: Preemergence
Outline: as §3

[18] = system: oilseed rape (Brassica napus); assay: Test C preemergence, plant response rating; details: Preemergence
Outline: as §3

[19] = 31 g ai/ha, 0 to 100 scale, 0 no effect, 100 complete control
[20] = 125 g ai/ha, 0 to 100 scale (0 no effect, 100 complete control)

O=C(OCCC(F)(F)F)c1c(Br)cccc1Oc1ncc(Cl)cn1 [Compound 26, 3,3,3-trifluoropropyl 2-bromo-6-[(5-chloro-2-pyrimidinyl)oxy]benzoate]
pest or weed control at 250 g/ha ([1]; Echinochloa crus-galli, 312 h): 60%
pest or weed control at 250 g/ha ([2]; Cyperus difformis, 312 h): 100%
pest or weed control at 250 g/ha ([3]; Heteranthera limosa, 312 h): 100%
plant injury at 250 g/ha ([4]; Oryza sativa, 312 h): 20%
pest or weed control at 125 g/ha ([5]; Echinochloa crus-galli, pre-emergence, 240 h, 125 g ai/ha, 0 to 100 scale (0 no effect, 100 complete control), read-out: Barnyardgrass plant response rating): 100%
pest or weed control at 500 g/ha ([5]; Echinochloa crus-galli, pre-emergence, 240 h, 500 g ai/ha, 0 to 100 scale (0 no effect, 100 complete control), read-out: Barnyardgrass plant response rating): 100%
pest or weed control at 125 g/ha ([6]; Ambrosia artemisiifolia, pre-emergence, 240 h, 125 g ai/ha, 0 to 100 scale (0 no effect, 100 complete control), read-out: Ragweed plant response rating): 20%
pest or weed control at 500 g/ha ([6]; Ambrosia artemisiifolia, pre-emergence, 240 h, 500 g ai/ha, 0 to 100 scale (0 no effect, 100 complete control), read-out: Ragweed plant response rating): 20%
pest or weed control at 125 g/ha ([7]; Bassia scoparia, pre-emergence, 240 h, 125 g ai/ha, 0 to 100 scale (0 no effect, 100 complete control), read-out: Kochia plant response rating): 100%
pest or weed control at 500 g/ha ([7]; Bassia scoparia, pre-emergence, 240 h, 500 g ai/ha, 0 to 100 scale (0 no effect, 100 complete control), read-out: Kochia plant response rating): 100%
pest or weed control at 125 g/ha ([8]; Amaranthus retroflexus, pre-emergence, 240 h, 125 g ai/ha, 0 to 100 scale (0 no effect, 100 complete control), read-out: Pigweed plant response rating): 100%
pest or weed control at 500 g/ha ([8]; Amaranthus retroflexus, pre-emergence, 240 h, 500 g ai/ha, 0 to 100 scale (0 no effect, 100 complete control), read-out: Pigweed plant response rating): 100%
pest or weed control at 125 g/ha ([9]; Setaria faberi, pre-emergence, 240 h, 125 g ai/ha, 0 to 100 scale (0 no effect, 100 complete control), read-out: Foxtail, Giant plant response rating): 100%
pest or weed control at 500 g/ha ([9]; Setaria faberi, pre-emergence, 240 h, 500 g ai/ha, 0 to 100 scale (0 no effect, 100 complete control), read-out: Foxtail, Giant plant response rating): 100%
pest or weed control at 125 g/ha ([10]; Lolium multiflorum, pre-emergence, 240 h, 125 g ai/ha, 0 to 100 scale (0 no effect, 100 complete control), read-out: Ryegrass, Italian plant response rating): 70%
pest or weed control at 500 g/ha ([10]; Lolium multiflorum, pre-emergence, 240 h, 500 g ai/ha, 0 to 100 scale (0 no effect, 100 complete control), read-out: Ryegrass, Italian plant response rating): 100%
pest or weed control at 125 g/ha ([11]; Ambrosia artemisiifolia, pre-emergence, 125 g ai/ha, scale of 0 to 100): 50%
pest or weed control at 16 g/ha ([11]; Ambrosia artemisiifolia, pre-emergence, 16 g ai/ha, scale 0 to 100): 20%
pest or weed control at 31 g/ha ([11]; Ambrosia artemisiifolia, pre-emergence, 31 g ai/ha, scale 0 to 100): 30%
pest or weed control at 62 g/ha ([11]; Ambrosia artemisiifolia, pre-emergence, 62 g ai/ha, scale 0 to 100): 60%
pest or weed control at 62 g/ha ([12]; Alopecurus myosuroides, pre-emergence, 62 g ai/ha, scale of 0 to 100): 90%
pest or weed control at 125 g/ha ([12]; Alopecurus myosuroides, pre-emergence, 125 g ai/ha, scale of 0 to 100): 90%
pest or weed control at 16 g/ha ([12]; Alopecurus myosuroides, pre-emergence, 16 g ai/ha, scale 0 to 100): 45%
pest or weed control at 31 g/ha ([12]; Alopecurus myosuroides, pre-emergence, 31 g ai/ha, scale 0 to 100): 90%
pest or weed control at 62 g/ha ([13]; Digitaria sanguinalis, pre-emergence, 62 g ai/ha, scale of 0 to 100): 100%
pest or weed control at 125 g/ha ([13]; Digitaria sanguinalis, pre-emergence, 125 g ai/ha, scale of 0 to 100): 100%
pest or weed control at 16 g/ha ([13]; Digitaria sanguinalis, pre-emergence, 16 g ai/ha, scale 0 to 100): 98%
pest or weed control at 31 g/ha ([13]; Digitaria sanguinalis, pre-emergence, 31 g ai/ha, scale 0 to 100): 100%
pest or weed control at 62 g/ha ([14]; Setaria faberi, pre-emergence, 62 g ai/ha, scale of 0 to 100): 98%
pest or weed control at 125 g/ha ([14]; Setaria faberi, pre-emergence, 125 g ai/ha, scale of 0 to 100): 98%
pest or weed control at 16 g/ha ([14]; Setaria faberi, pre-emergence, 16 g ai/ha, scale 0 to 100): 95%
pest or weed control at 31 g/ha ([14]; Setaria faberi, pre-emergence, 31 g ai/ha, scale 0 to 100): 98%
pest or weed control at 125 g/ha ([15]; Lolium multiflorum, pre-emergence, 125 g ai/ha, scale of 0 to 100): 95%
pest or weed control at 16 g/ha ([15]; Lolium multiflorum, pre-emergence, 16 g ai/ha, scale 0 to 100): 35%
pest or weed control at 31 g/ha ([15]; Lolium multiflorum, pre-emergence, 31 g ai/ha, scale 0 to 100): 75%
pest or weed control at 62 g/ha ([15]; Lolium multiflorum, pre-emergence, 62 g ai/ha, scale 0 to 100): 85%
plant injury at 31 g/ha ([16]; Glycine max, pre-emergence, 31 g ai/ha, scale 0 to 100): 10%
plant injury at 62 g/ha ([16]; Glycine max, pre-emergence, 62 g ai/ha, scale 0 to 100): 35%
Corn plant response rating (crop injury, 0 = no effect, 100 = complete kill) at 62 g/ha ([17]; Zea mays, pre-emergence, 62 g ai/ha, scale of 0 to 100): 25%
Corn plant response rating (crop injury, 0 = no effect, 100 = complete kill) at 125 g/ha ([17]; Zea mays, pre-emergence, 125 g ai/ha, scale of 0 to 100): 40%
Corn plant response rating (crop injury, 0 = no effect, 100 = complete kill) at 16 g/ha ([17]; Zea mays, pre-emergence, 16 g ai/ha, scale 0 to 100): 0%
Corn plant response rating (crop injury, 0 = no effect, 100 = complete kill) at 31 g/ha ([17]; Zea mays, pre-emergence, 31 g ai/ha, scale 0 to 100): 0%
plant injury at 125 g/ha ([18]; Brassica napus, pre-emergence, 125 g ai/ha, scale of 0 to 100): 100%
plant injury at 16 g/ha ([18]; Brassica napus, pre-emergence, 16 g ai/ha, scale 0 to 100): 80%
plant injury at 31 g/ha ([18]; Brassica napus, pre-emergence, 31 g ai/ha, scale 0 to 100): 85%
plant injury at 62 g/ha ([18]; Brassica napus, pre-emergence, 62 g ai/ha, scale 0 to 100): 100%

O=C(CCC(F)(F)F)c1c(Br)cccc1Oc1ncc(Cl)cn1 [Compound 92]
Plant response rating, Barnyardgrass [1]: 25
Plant response rating, Sedge, Umbrella [2]: 100
Plant response rating, Ducksalad [3]: 100
Plant response rating, Rice [4]: 0
Plant response rating, Barnyardgrass [5, 19]: 70
Barnyardgrass plant response rating [5, 20]: 100
Plant response rating, Ragweed [6, 19]: 0
Ragweed plant response rating [6, 20]: 0
Plant response rating, Kochia [7, 19]: 90
Kochia plant response rating [7, 20]: 90
Plant response rating, Pigweed [8, 19]: 100
Pigweed plant response rating [8, 20]: 100
Plant response rating, Foxtail, Giant [9, 19]: 100
Foxtail, Giant plant response rating [9, 20]: 100
Plant response rating, Ryegrass, Italian [10, 19]: 30
Ryegrass, Italian plant response rating [10, 20]: 80
Plant response rating, Ragweed ([11]; 125 g ai/ha, scale of 0 to 100): 60
Plant response rating, Ragweed ([11]; 31 g ai/ha, scale 0 to 100): 55
Plant response rating, Ragweed ([11]; 62 g ai/ha, scale 0 to 100): 60
Plant response rating, Blackgrass ([12]; 125 g ai/ha, scale of 0 to 100): 100
Plant response rating, Blackgrass ([12]; 16 g ai/ha, scale 0 to 100): 45
Plant response rating, Blackgrass ([12]; 31 g ai/ha, scale 0 to 100): 80
Plant response rating, Blackgrass ([12]; 62 g ai/ha, scale 0 to 100): 100
Plant response rating, Crabgrass, Large ([13]; 125 g ai/ha, scale of 0 to 100): 100
Plant response rating, Crabgrass, Large ([13]; 16 g ai/ha, scale 0 to 100): 100
Plant response rating, Crabgrass, Large ([13]; 31 g ai/ha, scale 0 to 100): 100
Plant response rating, Crabgrass, Large ([13]; 62 g ai/ha, scale 0 to 100): 100
Plant response rating, Foxtail, Giant ([14]; 125 g ai/ha, scale of 0 to 100): 100
Plant response rating, Foxtail, Giant ([14]; 31 g ai/ha, scale 0 to 100): 100
Plant response rating, Foxtail, Giant ([14]; 62 g ai/ha, scale 0 to 100): 100
Plant response rating, Ryegrass, Italian ([15]; 125 g ai/ha, scale of 0 to 100): 95
Plant response rating, Ryegrass, Italian ([15]; 31 g ai/ha, scale 0 to 100): 5
Plant response rating, Ryegrass, Italian ([15]; 62 g ai/ha, scale 0 to 100): 55
Plant response rating, Soybean ([16]; 125 g ai/ha, scale of 0 to 100): 60
Plant response rating, Soybean ([16]; 31 g ai/ha, scale 0 to 100): 40
Plant response rating, Soybean ([16]; 62 g ai/ha, scale 0 to 100): 70
Plant response rating, Corn ([17]; 125 g ai/ha, scale of 0 to 100): 40
Plant response rating, Corn ([17]; 16 g ai/ha, scale 0 to 100): 0
Plant response rating, Corn ([17]; 31 g ai/ha, scale 0 to 100): 15
Plant response rating, Corn ([17]; 62 g ai/ha, scale 0 to 100): 35
Plant response rating, Oilseed Rape ([18]; 125 g ai/ha, scale of 0 to 100): 100
Plant response rating, Oilseed Rape ([18]; 31 g ai/ha, scale 0 to 100): 100
Plant response rating, Oilseed Rape ([18]; 62 g ai/ha, scale 0 to 100): 100
